Source: ChEMBL document CHEMBL1938361, “Elaborate ligand-based modeling and subsequent synthetic exploration unveil new nanomolar Ca2+/calmodulin-dependent protein kinase II inhibitory leads” (Bioorg Med Chem, 2012)

Biological target: Calcium/calmodulin-dependent protein kinase type II subunit delta (Homo sapiens, UniProt Q13557)
Test: Inhibition of human recombinant CAMK2delta using tetramethylbenzidine as substrate by spectrophotometry analysis

Chain of Calcium/calmodulin-dependent protein kinase type II subunit delta (Q13557 whole entry): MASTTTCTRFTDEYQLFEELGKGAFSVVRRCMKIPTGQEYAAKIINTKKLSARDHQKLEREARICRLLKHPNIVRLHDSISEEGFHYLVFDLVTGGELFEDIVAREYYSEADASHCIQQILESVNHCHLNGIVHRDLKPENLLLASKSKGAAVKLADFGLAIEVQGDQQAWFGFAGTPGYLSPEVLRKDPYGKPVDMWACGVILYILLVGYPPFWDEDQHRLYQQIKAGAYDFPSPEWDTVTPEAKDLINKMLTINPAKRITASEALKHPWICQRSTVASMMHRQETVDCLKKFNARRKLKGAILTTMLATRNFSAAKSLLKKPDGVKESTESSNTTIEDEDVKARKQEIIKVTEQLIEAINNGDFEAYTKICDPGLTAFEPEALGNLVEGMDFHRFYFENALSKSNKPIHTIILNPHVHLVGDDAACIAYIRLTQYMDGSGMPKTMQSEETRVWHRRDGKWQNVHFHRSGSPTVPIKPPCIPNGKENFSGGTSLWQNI

CN([C@@H](Cc1ccc(OS(=O)(=O)c2cccc3cnccc23)cc1)C(=O)N1CCN(c2ccccc2)CC1)S(=O)(=O)c1cccc2cnccc12
IC50: 380 nM
